# Experimental data published in US20220387451A1, “AMORPHOUS PHARMACEUTICAL COMPOSITIONS OF ABIRATERONE ACETATE” (SUVEN LIFE SCIENCES LIMITED, priority 2019, published 2022).
# How the values were obtained:
# [1] = after an oral dose; cited from earlier work
# [2] = Excretion after an oral dose of abiraterone acetate (literature); assay type: in vivo; settings: feces plus urine
# Excerpt: Due to highly lipophilic nature and poor aqueous solubility in the gastrointestinal tract, the oral bioavailability of abiraterone acetate is limited. After an oral dose of abiraterone acetate, 88% of the administered drug gets excreted unchanged through feces, and another 5% is excreted in the urine (Ryan C J et al., J ClinOncol. 2010; 28(9):1481-1488). Therefore, >90% of the administered drug gets excreted and is not used for its intended treatment. […] As a result, Zytiga® must be taken on an empty stomach with water at least […] a meal. There is a need for developing new pharmaceutical compositions for abiraterone acetate that improve bioavailability in the fasted state to in turn reduce the food effect and overall variability in absorption.
compound,measurement,setting,value
CC(=O)O[C@H]1CC[C@@]2(C)C(=CC[C@@H]3[C@@H]2CC[C@]2(C)C(c4cccnc4)=CC[C@@H]32)C1 [Abiraterone acetate],administered drug excreted in the urine,[1],5%
same,administered drug excreted unchanged through feces,[1],88%
same,administered drug excreted,[2],> 90%
